Some results are limits rather than exact numbers.

T1 sequence (P42336 whole entry): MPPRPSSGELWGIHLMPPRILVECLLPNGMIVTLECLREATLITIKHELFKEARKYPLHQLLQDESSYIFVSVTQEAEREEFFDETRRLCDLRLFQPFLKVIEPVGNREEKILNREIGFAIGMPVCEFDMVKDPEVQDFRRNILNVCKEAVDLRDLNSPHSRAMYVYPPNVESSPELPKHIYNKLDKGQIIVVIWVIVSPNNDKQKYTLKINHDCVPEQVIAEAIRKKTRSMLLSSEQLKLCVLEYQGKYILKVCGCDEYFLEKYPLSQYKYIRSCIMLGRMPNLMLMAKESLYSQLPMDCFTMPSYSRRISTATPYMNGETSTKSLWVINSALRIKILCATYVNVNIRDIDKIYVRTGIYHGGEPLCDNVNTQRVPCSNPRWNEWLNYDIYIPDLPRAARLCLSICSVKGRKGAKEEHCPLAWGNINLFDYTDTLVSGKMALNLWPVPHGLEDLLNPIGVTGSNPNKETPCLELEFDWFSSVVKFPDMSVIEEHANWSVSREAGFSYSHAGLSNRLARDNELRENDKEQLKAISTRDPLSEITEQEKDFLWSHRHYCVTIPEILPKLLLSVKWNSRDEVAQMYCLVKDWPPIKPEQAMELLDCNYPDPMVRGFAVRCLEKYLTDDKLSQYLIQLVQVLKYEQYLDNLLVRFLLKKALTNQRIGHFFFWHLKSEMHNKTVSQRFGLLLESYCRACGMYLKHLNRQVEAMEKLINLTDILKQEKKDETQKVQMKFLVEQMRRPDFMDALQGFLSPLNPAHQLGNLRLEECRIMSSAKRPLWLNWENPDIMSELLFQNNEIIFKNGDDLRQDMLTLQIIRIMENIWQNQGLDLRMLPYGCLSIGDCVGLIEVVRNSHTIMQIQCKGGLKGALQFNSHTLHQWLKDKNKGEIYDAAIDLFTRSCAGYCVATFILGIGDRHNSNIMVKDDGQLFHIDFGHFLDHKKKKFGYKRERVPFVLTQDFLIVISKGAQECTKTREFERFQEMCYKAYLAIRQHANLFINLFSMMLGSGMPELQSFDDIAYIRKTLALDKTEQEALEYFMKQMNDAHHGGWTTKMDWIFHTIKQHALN
T1 sequence (P27986 whole entry partner): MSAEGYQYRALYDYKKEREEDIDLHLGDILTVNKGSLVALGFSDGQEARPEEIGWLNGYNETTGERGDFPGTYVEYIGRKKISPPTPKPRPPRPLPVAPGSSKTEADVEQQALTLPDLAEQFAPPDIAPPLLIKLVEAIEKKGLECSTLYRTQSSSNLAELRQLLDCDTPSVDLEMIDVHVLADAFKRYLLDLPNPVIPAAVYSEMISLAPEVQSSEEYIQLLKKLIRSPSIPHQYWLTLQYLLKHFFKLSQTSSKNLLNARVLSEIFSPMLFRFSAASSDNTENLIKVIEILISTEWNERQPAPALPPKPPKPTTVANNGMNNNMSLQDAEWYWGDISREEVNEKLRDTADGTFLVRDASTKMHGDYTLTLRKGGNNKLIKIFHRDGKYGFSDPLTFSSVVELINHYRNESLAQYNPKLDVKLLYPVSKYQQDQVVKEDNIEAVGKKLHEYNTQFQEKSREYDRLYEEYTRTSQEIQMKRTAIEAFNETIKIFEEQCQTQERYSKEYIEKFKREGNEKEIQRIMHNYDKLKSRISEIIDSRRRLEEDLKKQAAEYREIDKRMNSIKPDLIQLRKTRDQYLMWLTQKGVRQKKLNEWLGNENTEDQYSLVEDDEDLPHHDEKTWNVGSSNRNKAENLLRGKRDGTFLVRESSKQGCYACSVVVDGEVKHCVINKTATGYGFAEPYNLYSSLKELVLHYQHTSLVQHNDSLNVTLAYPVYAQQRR

One experiment addresses T1, PI3K (p110α/p85α) (Homo sapiens, UniProt P42336).
T1 construct: purchased Carna Biosciences 07CBS-0402A
Nature of the experiment: PI3K activity assay (ADP Hunter Plus). The class given is biochemical. The following applies: PI3Kα; class symbols; read-out: PI3K α IC50 (semi-quantitative). The procedure: The kinase activity was measured by using the commercial ADP Hunter™ Plus assay available from DiscoveRx (#33-016), which is a homogeneous assay to measure the accumulation of ADP, a universal product of kinase activity. […] Reaction was carried out for 1 hour at 25° C. Reagent A and B were sequentially added to the wells and plates were incubated for 30 min at 37° C. […] Values were normalized against the control activity included for each enzyme (i.e., 100% PI3 kinase activity, without compound). These values were plot against the inhibitor concentration and were fit to a sigmoid dose-response curve by using the Graphed software.
Usually IC50 stands for the point on the concentration scale where inhibition reaches its midpoint. On to `CCOC(=O)N1CCc2nc3c(N4CCOCC4)nc(-c4cccc5[nH]ncc45)cn3c2C1` [2-03, 3-(1H-Indazol-4-yl)-1-morpholin-4-yl-7,8-dihydro-5H-2,4-a,6,9-tetraaza-fluorene-6-carboxylic acid ethyl ester], for which the IC50 is more than 1000 nM.
`c1cncc(CN2CCc3nc4c(N5CCOCC5)nc(-c5cccc6[nH]ncc56)cn4c3C2)c1` [2-05]: the half-maximal inhibitory concentration (IC50) was more than 1000 nM.
For the compound `c1cc(-c2cn3c4c(nc3c(N3CCOCC3)n2)CCN(Cc2nccs2)C4)c2cn[nH]c2c1` [2-06], the IC50 is more than 1000 nM.
On the same count and under the same terms, next, `c1cc(-c2cn3c4c(nc3c(N3CCOCC3)n2)CCN(CC2CCOCC2)C4)c2cn[nH]c2c1` [2-09]: more than 1000 nM.
Still for that read-out and setting: with `CS(=O)(=O)c1ccc(CN2CCc3nc4c(N5CCOCC5)nc(-c5cccc6[nH]ncc56)cn4c3C2)cc1` [2-10] the figure was more than 1000 nM.
On the same count and under the same terms, with `c1cc(-c2cn3c4c(nc3c(N3CCOCC3)n2)CCN(Cc2ncc[nH]2)C4)c2cn[nH]c2c1` [2-13] the figure was more than 1000 nM; with `c1cc(-c2cn3c4c(nc3c(N3CCOCC3)n2)CCN(CC2CNC2)C4)c2cn[nH]c2c1` [2-14], more than 1000 nM; with `CCOC(=O)N1CCc2nc3c(N4CCOCC4)nc(-c4ccc(N)nc4)cn3c2C1` [2-21], more than 1000 nM.
On to `CCOC(=O)N1CCc2nc3c(N4CCOCC4)nc(-c4ccc5[nH]ccc5c4)cn3c2C1` [2-22], for which the IC50 was more than 1000 nM.
Still for that read-out and setting: next, `CCOC(=O)N1CCc2nc3c(N4CCOCC4)nc(-c4cccnc4)cn3c2C1` [2-24]: more than 1000 nM; `CCOC(=O)N1CCc2nc3c(N4CCOCC4)nc(-c4cnc(N)c(C(F)(F)F)c4)cn3c2C1` [2-25]: more than 1000 nM; `CCOC(=O)N1CCc2nc3c(N4CCOCC4)nc(-c4c(F)ccc5[nH]ccc45)cn3c2C1` [2-26]: more than 1000 nM.
Still for that read-out and setting: next, `CCOC(=O)N1CCc2nc3c(N4CCOCC4)nc(-c4ccc5[nH]ccc5c4)c(Cl)n3c2C1` [2-29]: more than 1000 nM; `CCOC(=O)N1CCc2nc3c(N4CCOCC4)nc(-c4cncc(OC)c4)c(Cl)n3c2C1` [2-30]: more than 1000 nM; `CCOC(=O)N1CCc2nc3c(N4CCOCC4)nc(-c4cccnc4)c(Cl)n3c2C1` [2-31]: more than 1000 nM.
Take `Nc1ncc(-c2cn3c4c(nc3c(N3CCOCC3)n2)CCN(CC2CCOCC2)C4)cn1` [2-36]: the concentration for half-maximal inhibition (IC50) was more than 1000 nM.
Consider `CCOC(=O)C1CCC(N2CCc3nc4c(N5CCOCC5)nc(-c5cnc(N)nc5)cn4c3C2)CC1` (centres unmarked) [2-40], for which the IC50 was more than 1000 nM.
On the same count and under the same terms, next, `CCOC(=O)N1CCc2nc3c(N4CCOCC4)nc(-c4cncnc4)cn3c2C1` [2-41]: more than 1000 nM.
As to `CC(C)NC(=O)N1CCc2nc3c(N4CCOCC4)nc(-c4cnc(N)nc4)cn3c2C1` [2-44], the IC50 was less than 500 nM.
On the same count and under the same terms, next, `c1nc(NCC2CC2)ncc1-c1cn2c3c(nc2c(N2CCOCC2)n1)CCN(CC1CC1)C3` [2-47]: more than 1000 nM.

Still in this experiment, the particulars now being: PI3Kα; quantitative results; read-out: PI3K α IC50.
On to `CCOC(=O)N1CCc2nc3c(N4CCOCC4)nc(-c4cccc(O)c4)cn3c2C1` [2-01, 3-(3-Hydroxy-phenyl)-1-morpholin-4-yl-7,8-dihydro-5H-2,4-a,6,9-tetraaza-fluorene-6-carboxylic acid ethyl ester], for which the IC50 was found to be 207 nM.
On the same count and under the same terms, with `Oc1cccc(-c2cn3c4c(nc3c(N3CCOCC3)n2)CCNC4)c1` [2-02] the figure was 185 nM.
The same measure, in the same setting: next, `c1cc(-c2cn3c4c(nc3c(N3CCOCC3)n2)CCN(Cc2ccncc2)C4)c2cn[nH]c2c1` [2-07]: 852 nM; `c1ccc(CN2CCc3nc4c(N5CCOCC5)nc(-c5cccc6[nH]ncc56)cn4c3C2)nc1` [2-08]: 439 nM.
On the same count and under the same terms, next, `c1coc(CN2CCc3nc4c(N5CCOCC5)nc(-c5cccc6[nH]ncc56)cn4c3C2)c1` [2-11]: 1780 nM; `c1cc(-c2cn3c4c(nc3c(N3CCOCC3)n2)CCN(Cc2ccoc2)C4)c2cn[nH]c2c1` [2-12]: 708 nM.
As for `CS(=O)(=O)c1cccc(CN2CCc3nc4c(N5CCOCC5)nc(-c5cccc6[nH]ncc56)cn4c3C2)c1` [2-15], the IC50 was 3330 nM.
For the compound `CCOC(=O)N1CCc2nc3c(N4CCOCC4)nc(-c4cnc(OC)nc4)cn3c2C1` [2-19], the IC50 was 724 nM.
The same measure, in the same setting: next, `CCOC(=O)N1CCc2nc3c(N4CCOCC4)nc(-c4cnc5[nH]ccc5c4)cn3c2C1` [2-20]: 1050 nM; `CCOC(=O)N1CCc2nc3c(N4CCOCC4)nc(-c4cncc(OC)c4)cn3c2C1` [2-23]: 2700 nM.
On the same count and under the same terms, with `CCOC(=O)N1CCc2nc3c(N4CCOCC4)nc(-c4cnc(OC)nc4)c(Cl)n3c2C1` [2-27] the figure was 603 nM; with `CCOC(=O)N1CCc2nc3c(N4CCOCC4)nc(-c4cnc5[nH]ccc5c4)c(Cl)n3c2C1` [2-28], 1070 nM; with `CCOC(=O)N1CCc2nc3c(N4CCOCC4)nc(-c4cnc(N)c(C(F)(F)F)c4)c(Cl)n3c2C1` [2-33], 1780 nM.
Turning to `CC(C)CN1CCc2nc3c(N4CCOCC4)nc(-c4cnc(N)nc4)cn3c2C1` [2-35], the IC50 is 692 nM.
`Nc1ncc(-c2cn3c4c(nc3c(N3CCOCC3)n2)CCN(CC2CCCCC2)C4)cn1` [2-37]: the IC50 amounted to 363 nM.
Same read-out and setting: with `CC(C)C(=O)N1CCc2nc3c(N4CCOCC4)nc(-c4cnc(N)nc4)cn3c2C1` [2-43] the figure was 550 nM; with `CCN1CCc2nc3c(N4CCOCC4)nc(-c4cnc(N)nc4)cn3c2C1` [2-45], 257 nM; with `COC(=O)N1CCc2nc3c(N4CCOCC4)nc(-c4cnc(N)nc4)cn3c2C1` [2-48], 100 nM.
On to `CCCNC(=O)N1CCc2nc3c(N4CCOCC4)nc(-c4cnc(N)nc4)c(Cl)n3c2C1` [2-54], for which the IC50 was found to be 148 nM.
Regarding `CCCCS(=O)(=O)N1CCc2nc3c(N4CCOCC4)nc(-c4cnc(N)nc4)cn3c2C1` [2-55], the IC50 was 33 nM.
As for `Nc1ncc(-c2nc(N3CCOCC3)c3nc4c(n3c2Cl)CN(S(=O)(=O)c2ccccc2)CC4)cn1` [2-58], the IC50 stood at 101 nM.
As for `N#CCCCS(=O)(=O)N1CCc2nc3c(N4CCOCC4)nc(-c4cnc(N)nc4)cn3c2C1` [2-77], the IC50 was 19 nM.
In the case of `Nc1ncc(-c2cn3c4c(nc3c(N3CCOCC3)n2)CCN(CC2CCCC2)C4)cn1` [2-80], the IC50 turned out to be 340 nM.
Still for that read-out and setting: next, `Nc1ncc(-c2cn3c4c(nc3c(N3CCOCC3)n2)CCN(C2CCCCC2)C4)cn1` [2-81]: 238 nM; `Nc1ncc(-c2cn3c4c(nc3c(N3CCOCC3)n2)CCN(Cc2ccnnc2)C4)cn1` [2-84]: 175 nM.
Still for that read-out and setting: with `CCCC(=O)N1CCc2nc3c(N4CCOCC4)nc(-c4cnc(N)nc4)cn3c2C1` [2-86] the figure was 94 nM; with `COc1cccc(CN2CCc3nc4c(N5CCOCC5)nc(-c5cnc(N)nc5)cn4c3C2)c1` [2-95], 240 nM.
On the same count and under the same terms, with `Nc1ncc(-c2cn3c4c(nc3c(N3CCOCC3)n2)CCN(Cc2ccc(OC(F)(F)F)cc2)C4)cn1` [2-100] the figure was 310 nM; with `Nc1ncc(-c2cn3c4c(nc3c(N3CCOCC3)n2)CCN(Cc2ccncc2)C4)cn1` [2-107], 125 nM.

Still in this experiment, the particulars now being: quantitative results; read-out: PI3K α IC50.
Turning to `Nc1ncc(-c2cn3c4c(nc3c(N3CCOCC3)n2)CCN(S(=O)(=O)C2CNC2)C4)cn1` [2-110], the IC50 was 7 nM.
The same measure, in the same setting: next, `Nc1ncc(-c2cn3c4c(nc3c(N3CCOCC3)n2)CCN(Cc2nccs2)C4)cn1` [2-111]: 139 nM.
Still for that read-out and setting: with `Nc1ncc(-c2cn3c4c(nc3c(N3CCOCC3)n2)CCN(C(=O)Nc2cc(Cl)cc(Cl)c2)C4)cn1` [2-112] the figure was 90 nM; with `N#Cc1cccc(NC(=O)N2CCc3nc4c(N5CCOCC5)nc(-c5cnc(N)nc5)cn4c3C2)c1` [2-113], 81 nM.

For the origin of these results see US20130029967A1, “Fused Imidazo [3,2 - D] Pyrazines as P13 Kinase Inhibitors” (Centro Nacional de Investigaciones Oncologicas (CNIO), priority 2009, published 2013).
